Experimental data reported in patent US20170355705A1 (GlaxoSmithKline Intellectual Property (No.2) Limited, priority 2014, published 2017).

Target: T1, SIRT1 (Homo sapiens, UniProt Q96EB6)
T1 sequence (Q96EB6 1-747): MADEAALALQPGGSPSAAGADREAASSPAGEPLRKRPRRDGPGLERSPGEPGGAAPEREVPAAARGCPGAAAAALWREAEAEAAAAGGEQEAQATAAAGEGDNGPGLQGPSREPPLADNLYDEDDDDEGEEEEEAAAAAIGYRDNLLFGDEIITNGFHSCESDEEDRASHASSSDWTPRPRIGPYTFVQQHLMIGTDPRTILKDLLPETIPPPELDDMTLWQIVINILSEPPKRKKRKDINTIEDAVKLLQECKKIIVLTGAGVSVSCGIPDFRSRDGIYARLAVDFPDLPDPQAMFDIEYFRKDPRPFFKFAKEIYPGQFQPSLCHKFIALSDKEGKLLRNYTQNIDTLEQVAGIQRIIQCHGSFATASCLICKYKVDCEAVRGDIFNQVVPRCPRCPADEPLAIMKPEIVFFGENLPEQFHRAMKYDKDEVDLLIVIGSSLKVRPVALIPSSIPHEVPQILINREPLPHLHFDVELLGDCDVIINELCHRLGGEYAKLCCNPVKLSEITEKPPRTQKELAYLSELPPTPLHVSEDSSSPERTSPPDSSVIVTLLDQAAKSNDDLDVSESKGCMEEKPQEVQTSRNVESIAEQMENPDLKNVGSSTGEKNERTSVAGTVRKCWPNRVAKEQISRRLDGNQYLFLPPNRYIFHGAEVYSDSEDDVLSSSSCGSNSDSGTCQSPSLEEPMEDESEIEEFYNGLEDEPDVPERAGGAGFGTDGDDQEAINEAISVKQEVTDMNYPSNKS
Assay: Trp mass spectrometry assay of SIRT1 activity (EC1.5, percent maximum activation)
Assay type: biochemical
Details: Trp mass spectrometry assay; for TRP Activity (EC1.5): EC1.5 = concentration giving 150% activation of SIRT1
In short: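 Sirtuin deacetylation was run with purified N-His SIRT1 and the 5TMR Trp peptide across a compound titration, stopped after 25 min by acidification, and analysed by MS for OAADPR. Endpoint lay within the linear range.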

[1] = 0.5 μM peptide substrate, 120 μM βNAD+, 10 nM SIRT1, 25 minutes at 25° C.
[2] = percent maximum activation of SIRT1

SMILES: Cc1ccc(-c2ccc3c(n2)N(C(=O)Nc2cccnc2)[C@H]2CCN3C2)c(C)n1 [Example 201, (4S)-7-(2,6-dimethylpyridin-3-yl)-N-(pyridin-3-yl)-3,4-dihydro-1,4-methanopyrido[2,3-b][1,4]diazepine-5(2H)-carboxamide]
- TRP Activity (EC1.5, concentration of test compound that results in 150% activation of SIRT1) [1]: B (EC1.5 1-25 μM)
- TRP MAX RESP (percent maximum fold activation) [1]: A (Fold activation ≧150%)

SMILES: CCn1cc(-c2ccc3c(n2)N(C(=O)Nc2cnccn2)[C@H]2CCN3C2)cn1 [Example 225, (4S)-7-(1-ethyl-1H-pyrazol-4-yl)-N-(pyrazin-2-yl)-3,4-dihydro-1,4-methanopyrido[2,3-b][1,4]diazepine-5(2H)-carboxamide]
- TRP Activity (EC1.5, concentration of test compound that results in 150% activation of SIRT1) [1]: B (EC1.5 1-25 μM)
- TRP MAX RESP (percent maximum fold activation) [1]: A (Fold activation ≧150%)

SMILES: O=C(Nc1cc(OC[C@H](O)CO)ncn1)N1c2nc(-c3cccc(C(F)(F)F)c3)c(Cl)cc2N2CC[C@H]1C2 [Example 24, (4S)-8-chloro-N-(6-((R)-2,3-dihydroxypropoxy)pyrimidin-4-yl)-7-(3-(trifluoromethyl)phenyl)-3,4-dihydro-1,4-methanopyrido[2,3-b][1,4]diazepine-5(2H)-carboxamide]
- TRP Activity (EC1.5): B (EC1.5 1-25 μM)
- TRP MAX RESP (percent maximum fold activation) [2]: A (Fold activation ≧150%)

SMILES: Cc1cc(-c2ccc3c(n2)N(C(=O)Nc2cc(N4CCCC4)ccn2)[C@H]2CCN3C2)ccn1 [Example 367]
- TRP MAX RESP (percent maximum fold activation) [1]: A (Fold activation ≧150%)

SMILES: O=C(Nc1ccnc(OC[C@@H](O)CO)n1)N1c2nc(-c3cccc(C(F)(F)F)c3)ccc2N2CC[C@H]1C2 [Example 134, (4S)-N-(2-((S)-2,3-dihydroxypropoxy)pyrimidin-4-yl)-7-(3-(trifluoromethyl)phenyl)-3,4-dihydro-1,4-methanopyrido[2,3-b][1,4]diazepine-5(2H)-carboxamide]
- TRP Activity (EC1.5): A (EC1.5<1 μM)
- TRP MAX RESP (percent maximum fold activation) [2]: A (Fold activation ≧150%)

SMILES: N#Cc1cc2c(nc1-c1cccc(C(F)(F)F)c1)N(C(=O)Nc1ccnc(OC[C@@H](O)CO)c1)[C@H]1CCN2C1 [Example 104, (4S)-8-cyano-N-(2-((S)-2,3-dihydroxypropoxy)pyridin-4-yl)-7-(3-(trifluoromethyl)phenyl)-3,4-dihydro-1,4-methanopyrido[2,3-b][1,4]diazepine-5(2H)-carboxamide]
- TRP Activity (EC1.5): A (EC1.5<1 μM)
- TRP MAX RESP (percent maximum fold activation) [2]: A (Fold activation ≧150%)

SMILES: COc1cc(-c2ccc3c(n2)N(C(=O)Nc2cnccn2)[C@H]2CCN3C2)ccn1 [Example 141, (4S)-7-(2-methoxypyridin-4-yl)-N-(pyrazin-2-yl)-3,4-dihydro-1,4-methanopyrido[2,3-b][1,4]diazepine-5(2H)-carboxamide]
- TRP Activity (EC1.5): B (EC1.5 1-25 μM)
- TRP MAX RESP (percent maximum fold activation) [2]: A (Fold activation ≧150%)

SMILES: O=C(Nc1cncc(OC[C@@H](O)CO)n1)N1c2nc(-c3cccc(C(F)(F)F)c3)ccc2N2CC[C@H]1C2 [Example 123, (4S)-N-(6-((S)-2,3-dihydroxypropoxy)pyrazin-2-yl)-7-(3-(trifluoromethyl)phenyl)-3,4-dihydro-1,4-methanopyrido[2,3-b][1,4]diazepine-5(2H)-carboxamide]
- TRP Activity (EC1.5): A (EC1.5<1 μM)
- TRP MAX RESP (percent maximum fold activation) [2]: A (Fold activation ≧150%)

SMILES: O=C(Nc1ccnc(OCC(O)CO)c1)N1c2nc(-c3cccc(C(F)(F)F)c3)ccc2N2CC[C@H]1C2 (stereo in doubt) [Example 170, (4S)-N-(2-((S)-2,3-dihydroxypropoxy)pyridin-4-yl)-7-(3-(trifluoromethyl)phenyl)-3,4-dihydro-1,4-methanopyrido[2,3-b][1,4]diazepine-5(2H)-carboxamide]
- TRP Activity (EC1.5): A (EC1.5<1 μM)
- TRP MAX RESP (percent maximum fold activation) [2]: A (Fold activation ≧150%)

SMILES: Cc1cc(-c2nc3c(cc2Cl)N2CC[C@@H](C2)N3C(=O)Nc2cc(OC[C@@H](O)CO)ncn2)ccn1 [Example 44, (4S)-8-chloro-N-(6-((S)-2,3-dihydroxypropoxy)pyrimidin-4-yl)-7-(2-methylpyridin-4-yl)-3,4-dihydro-1,4-methanopyrido[2,3-b][1,4]diazepine-5(2H)-carboxamide]
- TRP Activity (EC1.5): C (EC1.5>25 μM)
- TRP MAX RESP (percent maximum fold activation) [2]: B (Fold Activation <150%)

SMILES: Cc1ccc(-c2ccc3c(n2)N(C(=O)Nc2cncc(OC[C@@H](O)CO)n2)[C@H]2CCN3C2)cn1 [Example 205, (4S)-N-(6-((S)-2,3-dihydroxypropoxy)pyrazin-2-yl)-7-(6-methylpyridin-3-yl)-3,4-dihydro-1,4-methanopyrido[2,3-b][1,4]diazepine-5(2H)-carboxamide]
- TRP Activity (EC1.5, concentration of test compound that results in 150% activation of SIRT1) [1]: B (EC1.5 1-25 μM)
- TRP MAX RESP (percent maximum fold activation) [1]: A (Fold activation ≧150%)

SMILES: Cc1cc(-c2ccc3c(n2)N(C(=O)Nc2cnccn2)[C@H]2CCN3C2)c(C)cn1 [Example 159, (4S)-7-(2,5-dimethylpyridin-4-yl)-N-(pyrazin-2-yl)-3,4-dihydro-1,4-methanopyrido[2,3-b][1,4]diazepine-5(2H)-carboxamide]
- TRP Activity (EC1.5): B (EC1.5 1-25 μM)
- TRP MAX RESP (percent maximum fold activation) [2]: A (Fold activation ≧150%)

SMILES: Cc1nn(C)cc1-c1ccnc(NC(=O)N2c3nc(-c4ccnc(C(F)(F)F)c4)ccc3N3CC[C@H]2C3)c1 [Example 324]
- TRP MAX RESP (percent maximum fold activation) [1]: A (Fold activation ≧150%)

SMILES: O=C(Nc1cncc(OC[C@H](O)CO)n1)N1c2nc(-c3cccc(C(F)(F)F)c3)ccc2N2CC[C@H]1C2 [Example 128, (4S)-N-(6-((R)-2,3-dihydroxypropoxy)pyrazin-2-yl)-7-(3-(trifluoromethyl)phenyl)-3,4-dihydro-1,4-methanopyrido[2,3-b][1,4]diazepine-5(2H)-carboxamide]
- TRP Activity (EC1.5): A (EC1.5<1 μM)
- TRP MAX RESP (percent maximum fold activation) [2]: A (Fold activation ≧150%)

SMILES: Cc1cc(-c2ccc3c(n2)N(C(=O)Nc2cnc4c(c2)OCCO4)[C@H]2CCN3C2)ccn1 [Example 148, (4S)-N-(2,3-dihydro-[1,4]dioxino[2,3-b]pyridin-7-yl)-7-(2-methylpyridin-4-yl)-3,4-dihydro-1,4-methanopyrido[2,3-b][1,4]diazepine-5(2H)-carboxamide]
- TRP MAX RESP (percent maximum fold activation) [2]: A (Fold activation ≧150%)

SMILES: Cc1cc(-c2ccc3c(n2)N(C(=O)Nc2ccc4c(c2)OCCO4)[C@H]2CCN3C2)ccn1 [Example 121, (4S)-N-(2,3-dihydrobenzo[b][1,4]dioxin-6-yl)-7-(2-methylpyridin-4-yl)-3,4-dihydro-1,4-methanopyrido[2,3-b][1,4]diazepine-5(2H)-carboxamide]
- TRP Activity (EC1.5): B (EC1.5 1-25 μM)
- TRP MAX RESP (percent maximum fold activation) [2]: A (Fold activation ≧150%)

SMILES: O=C(Nc1ccnc(OC[C@@H](O)CO)c1)N1c2nc(-c3ccnc(C(F)(F)F)c3)c(Cl)cc2N2CC[C@H]1C2 [Example 108, (4S)-8-chloro-N-(2-((S)-2,3-dihydroxypropoxy)pyridin-4-yl)-7-(2-(trifluoromethyl)pyridin-4-yl)-3,4-dihydro-1,4-methanopyrido[2,3-b][1,4]diazepine-5(2H)-carboxamide]
- TRP Activity (EC1.5): B (EC1.5 1-25 μM)
- TRP MAX RESP (percent maximum fold activation) [2]: A (Fold activation ≧150%)

SMILES: O=C(Nc1cnccn1)N1c2nc(N3CCCCC3)ccc2N2CC[C@H]1C2 [Example 181, (4S)-7-(piperidin-1-yl)-N-(pyrazin-2-yl)-3,4-dihydro-1,4-methanopyrido[2,3-b][1,4]diazepine-5(2H)-carboxamide]
- TRP Activity (EC1.5): B (EC1.5 1-25 μM)
- TRP MAX RESP (percent maximum fold activation) [2]: A (Fold activation ≧150%)

SMILES: NC(=O)N1c2nc(-c3cccc(C(F)(F)F)c3)ccc2N2CC[C@H]1C2 [Example 379, (4S)-7-(3-(trifluoromethyl)phenyl)-3,4-dihydro-1,4-methanopyrido[2,3-b][1,4]diazepine-5(2H)-carboxamide]
- TRP Activity (EC1.5, concentration of test compound that results in 150% activation of SIRT1) [1]: C (EC1.5>25 μM)
- TRP MAX RESP (percent maximum fold activation) [1]: B (Fold Activation <150%)

SMILES: Cl.O=C(Nc1ccnc(OC[C@@H](O)CO)c1)N1c2nc(-c3cccc(C(F)(F)F)c3)c(Cl)cc2N2CC[C@H]1C2 [Example 58, (4S)-8-chloro-N-(2-((S)-2,3-dihydroxypropoxy)pyridin-4-yl)-7-(3-(trifluoromethyl)phenyl)-3,4-dihydro-1,4-methanopyrido[2,3-b][1,4]diazepine-5(2H)-carboxamide, Hydrochloride]
- TRP Activity (EC1.5): A (EC1.5<1 μM)
- TRP MAX RESP (percent maximum fold activation) [2]: A (Fold activation ≧150%)
